{"source": "ChEMBL document CHEMBL5321274", "about": "“Second-Generation AUTACs for Targeted Autophagic Degradation” (J Med Chem, 2023)", "key": {"MEF [1]": {"system": "MEF", "experiment": "Induction of EGFP-tagged FKBP12 degradation in p62-/- MEF cells assessed as reduction in FKBP12 level incubated for 48 hrs by immunoblot analysis", "assay_type": "cell-based", "settings": "Mus musculus"}, "HeLa [2]": {"system": "HeLa", "experiment": "Induction of EGFP-tagged FKBP12 degradation in human HeLa cells assessed as reduction in FKBP12 protein level at 0.001 to 10 uM incubated for 48 hrs in presence of bafilomycin Al treated for last 12 hrs by immunoblot analysis", "assay_type": "cell-based", "settings": "dose 0.001-10 µM"}, "HeLa [3]": {"system": "HeLa", "experiment": "Effect on FKBP12 mRNA transcription level in human HeLa cells at 0.1 to 10 uM incubated for 48 hrs by RT-PCR analysis", "assay_type": "functional, cell-based", "settings": "dose 0.1-10 µM"}, "HeLa [4]": {"system": "HeLa", "experiment": "Induction of EGFP-tagged FKBP12 degradation in human HeLa cells assessed as reduction in FKBP12 protein level at 1 to 10 uM incubated for 48 hrs in presence of 100 uM 8H-FBnG by immunoblot analysis", "assay_type": "cell-based", "settings": "dose 1-10 µM"}, "MEF [5]": {"system": "MEF", "experiment": "Induction of EGFP-tagged FKBP12 degradation in […] MEF cells assessed as reduction in FKBP12 level incubated for 48 hrs by immunoblot analysis", "assay_type": "cell-based", "settings": "Mus musculus"}, "HeLa [6]": {"system": "HeLa", "experiment": "Induction of EGFP-tagged FKBP12 degradation in human HeLa cells assessed as protein knockdown at 1 uM incubated for 48 hrs by immunoblot analysis", "assay_type": "cell-based"}, "HeLa [7]": {"system": "HeLa", "experiment": "Induction of autophagy mediated Halotag-fused EGFP (unknown origin) degradation expressed in human HeLa cells assessed as reduction in EGFP-HT substrate level at 0.1 to 10 uM measured after 24 hrs by fluorescence microscopic analysis", "assay_type": "cell-based", "settings": "dose 0.1-10 µM"}, "HeLa [8]": {"system": "HeLa", "experiment": "Induction of autophagy mediated Halotag-fused EGFP (unknown origin) degradation expressed in human HeLa cells assessed as reduction in EGFP-HT substrate level at 0.01 to 1 uM measured after 24 hrs by fluorescence microscopic analysis", "assay_type": "cell-based", "settings": "dose 0.01-1 µM"}, "MEF [9]": {"system": "MEF", "experiment": "Induction of autophagy mediated Halotag-fused EGFP (unknown origin) degradation transiently expressed in Atg5+/+ MEF cells assessed as reduction in EGFP-HT substrate level at 1 uM measured after 24 hrs by fluorescence microscopic analysis", "assay_type": "cell-based"}, "HeLa [10]": {"system": "HeLa", "experiment": "Induction of autophagy mediated Rosella/Halotag-fused EGFP (unknown origin) degradation expressed in human HeLa cells assessed as lysosomal degradation of EGFP-HT substrate at 1 uM incubated for 24 hrs by fluorescence microscopic analysis", "assay_type": "cell-based"}, "HeLa [11]": {"system": "HeLa", "experiment": "Induction of autophagy mediated Halotag-fused EGFP (unknown origin) degradation expressed in human HeLa cells assessed as reduction in EGFP-HT substrate level at <1 uM measured after 24 hrs by fluorescence microscopic analysis", "assay_type": "cell-based"}, "HeLa [12]": {"system": "HeLa", "experiment": "Induction of autophagy mediated Halotag-fused EGFP (unknown origin) degradation expressed in human HeLa cells assessed as reduction in EGFP-HT substrate level at 1 to 10 uM measured after 12 to 24 hrs by fluorescence microscopic analysis", "assay_type": "cell-based", "settings": "dose 1-10 µM, time 12-24 hrs"}, "HeLa [13]": {"system": "HeLa", "experiment": "Induction of autophagy mediated Halotag-fused EGFP (unknown origin) degradation expressed in human HeLa cells assessed as reduction in EGFP-HT substrate level at 1 uM incubated for 24 hrs in presence of bafilomycin Al by fluorescence microscopic analysis", "assay_type": "cell-based"}, "HeLa [14]": {"system": "HeLa", "experiment": "Cytotoxicity against human HeLa cells expressing Halotag-fused EGFP assessed as reduction in cell survival rate at 0.001 to 100 uM", "assay_type": "toxicity, cell-based", "settings": "dose 0.001-100 µM"}, "MEF [15]": {"system": "MEF", "experiment": "Induction of autophagy mediated Halotag-fused EGFP (unknown origin) degradation transiently expressed in Atg5-/- MEF cells assessed as reduction in EGFP-HT substrate level at 1 uM measured after 24 hrs by fluorescence microscopic analysis", "assay_type": "cell-based"}, "HeLa [16]": {"system": "HeLa", "experiment": "Induction of autophagy mediated Halotag-fused EGFP (unknown origin) degradation expressed in human HeLa cells assessed as reduction in EGFP-HT substrate level measured after 24 hrs by fluorescence microscopic analysis", "assay_type": "cell-based", "settings": "dose 1-10 µM"}}, "note": "Activity calls are given as the source filed them. The calls are words filed in the database; no cut-off is given here.", "data": [{"molecule": "CCC(C)(C)C(=O)C(=O)N1CCCC[C@H]1C(=O)O[C@H](CCc1ccc(OC)c(OC)c1)c1cccc(NC(=O)CCC(=O)NCCCOCCOCCOCCCn2cc(-c3nc4c(=O)[nH]c(N)nc4n3Cc3ccc(F)cc3)cn2)c1", "values": [{"measurement": "Activity", "setting": "MEF [1]", "value": "inactive"}, {"measurement": "Activity", "setting": "HeLa [2]", "value": "inactive"}, {"measurement": "Activity", "setting": "HeLa [3]", "value": "inactive"}, {"measurement": "Activity", "setting": "HeLa [4]", "value": "inactive"}, {"measurement": "Activity", "setting": "MEF [5]", "value": "inactive"}, {"measurement": "Activity", "setting": "HeLa [6]", "value": "Active"}]}, {"molecule": "O=c1[nH]cnc2c1nc(-c1cnn(CCOCCOCCOCCOCCOCCCCCCCl)c1)n2Cc1ccc(F)cc1", "values": [{"measurement": "Activity", "setting": "HeLa [7]", "value": "inactive"}]}, {"molecule": "CC(=O)NC(CSc1nc2c(=O)[nH]c(N)nc2n1Cc1ccccc1)C(=O)NCCOCCOCCOCCOCCOCCCCCCCl", "note": "(single isomer, unassigned)", "values": [{"measurement": "Activity", "setting": "HeLa [8]", "value": "inactive"}]}, {"molecule": "Fc1ccc(Cn2ccnc2-c2cnn(CCOCCOCCOCCOCCOCCCCCCCl)c2)cc1", "values": [{"measurement": "Activity", "setting": "HeLa [7]", "value": "inactive"}]}, {"molecule": "Nc1nc2c(nc(-c3cccc(OCCOCCOCCOCCOCCOCCCCCCCl)c3)n2Cc2ccc(F)cc2)c(=O)[nH]1", "values": [{"measurement": "Activity", "setting": "HeLa [8]", "value": "Active"}]}, {"molecule": "CC(=O)NC(CSc1nc2c(=O)[nH]c(N)nc2n1Cc1cccc(F)c1)C(=O)NCCOCCOCCOCCOCCOCCCCCCCl", "note": "(single isomer, unassigned)", "values": [{"measurement": "Activity", "setting": "HeLa [8]", "value": "inactive"}]}, {"molecule": "CC(=O)NC(CSc1nc2c(=O)[nH]c(N)nc2n1Cc1ccccc1F)C(=O)NCCOCCOCCOCCOCCOCCCCCCCl", "note": "(single isomer, unassigned)", "values": [{"measurement": "Activity", "setting": "HeLa [8]", "value": "inactive"}]}, {"molecule": "CC(=O)NC(CSc1nc2c(=O)[nH]c(N)nc2n1Cc1ccc(C)cc1)C(=O)NCCOCCOCCOCCOCCOCCCCCCCl", "note": "(single isomer, unassigned)", "values": [{"measurement": "Activity", "setting": "HeLa [8]", "value": "inactive"}]}, {"molecule": "Nc1ncnc2c1nc(-c1cnn(CCOCCOCCOCCOCCOCCCCCCCl)c1)n2Cc1ccc(F)cc1", "values": [{"measurement": "Activity", "setting": "HeLa [7]", "value": "inactive"}]}, {"molecule": "Nc1nc2c(nc(-c3ccc(OCCOCCOCCOCCOCCOCCCCCCCl)cc3)n2Cc2ccc(F)cc2)c(=O)[nH]1", "values": [{"measurement": "Activity", "setting": "HeLa [8]", "value": "Active"}]}, {"molecule": "CC(=O)NC(CSc1nc2c(=O)[nH]c(N)nc2n1Cc1ccc(S(C)(=O)=O)cc1)C(=O)NCCOCCOCCOCCOCCOCCCCCCCl", "note": "(single isomer, unassigned)", "values": [{"measurement": "Activity", "setting": "HeLa [8]", "value": "inactive"}]}, {"molecule": "Nc1nc2c(nc(-c3cnn(CCOCCOCCOCCOCCOCCCCCCCl)c3)n2Cc2ccc(F)cc2)c(=O)[nH]1", "values": [{"measurement": "Activity", "setting": "MEF [9]", "value": "Active"}, {"measurement": "Activity", "setting": "HeLa [10]", "value": "Active"}, {"measurement": "Activity", "setting": "HeLa [11]", "value": "Active"}, {"measurement": "Activity", "setting": "HeLa [12]", "value": "Active"}, {"measurement": "Activity", "setting": "HeLa [8]", "value": "Active"}, {"measurement": "Activity", "setting": "HeLa [13]", "value": "inactive"}, {"measurement": "Activity", "setting": "HeLa [14]", "value": "Non-Toxic"}, {"measurement": "Activity", "setting": "MEF [15]", "value": "inactive"}]}, {"molecule": "CC(=O)NC(CSc1nc2c(=O)[nH]c(N)nc2n1Cc1ccc(Cl)cc1)C(=O)NCCOCCOCCOCCOCCOCCCCCCCl", "note": "(single isomer, unassigned)", "values": [{"measurement": "Activity", "setting": "HeLa [16]", "value": "Dose-Dependent Effect"}]}, {"molecule": "Fc1ccc(Cn2c(-c3cnn(CCOCCOCCOCCOCCOCCCCCCCl)c3)nc3ccccc32)cc1", "values": [{"measurement": "Activity", "setting": "HeLa [7]", "value": "inactive"}]}, {"molecule": "Cn1c(=O)c2nc(-c3cnn(CCOCCOCCOCCOCCOCCCCCCCl)c3)n(Cc3ccc(F)cc3)c2n(C)c1=O", "values": [{"measurement": "Activity", "setting": "HeLa [7]", "value": "inactive"}]}, {"molecule": "COc1ccc(Cn2c(SCC(NC(C)=O)C(=O)NCCOCCOCCOCCOCCOCCCCCCCl)nc3c(=O)[nH]c(N)nc32)cc1", "note": "(single isomer, unassigned)", "values": [{"measurement": "Activity", "setting": "HeLa [8]", "value": "inactive"}]}, {"molecule": "CC(=O)NC(CSc1nc2c(=O)[nH]c(N)nc2n1Cc1ccc(C#N)cc1)C(=O)NCCOCCOCCOCCOCCOCCCCCCCl", "note": "(single isomer, unassigned)", "values": [{"measurement": "Activity", "setting": "HeLa [8]", "value": "inactive"}]}, {"molecule": "Nc1nc2c(nc(-c3cn(CCOCCOCCOCCOCCOCCCCCCCl)nn3)n2Cc2ccc(F)cc2)c(=O)[nH]1", "values": [{"measurement": "Activity", "setting": "HeLa [8]", "value": "Active"}]}]}
